The subject of assay [1] is wild type aspartate responsive control cells. Nature of the assay: Swarming of wild type control cells grown with methyl-D-aspartate. The conditions noted are these: grown in the presence vs absence of methyl-D-aspartate. It is filed as cell-based, E. coli. The procedure:
(§1) eJSmcp1[pJStari1, pJSxcmcp1] is grown in the absence and in the presence of methyl-D-aspartate.

For assay [2], the system named is eJSmcp1[pJStari1, pJSxcmcp1]. In words: Swarming of eJSmcp1[pJStari1, pJSxcmcp1] grown with methyl-D-aspartate. It is filed as cell-based, E. coli. The conditions noted are these: grown in the presence vs absence of methyl-D-aspartate; Tar-expressing transformed strain. As for the experimental part:
as §1

On to methyl-D-aspartate, for which the Swarming result is “same results are seen” in assay [1] and “Swarming is seen in the presence of the aspartate but not in its absence” in assay [2].

Source of the values: US20100310420A1, “SENSORS” (THE TRUSTEES OF PRINCETON UNIVERSITY, priority 2003, published 2010).
